Experiments:
[1] = system: G28A (RNA, aptamer) GGACGCGACCGAAAUGGUGAAGGACGGAUCCAGUGCGAAACACGCACUGUUGAGUAGAGUGUGAGCUCCGUAACUGGUCGCGUC; assay: fluorescence activation titration, Hill fit; conditions: 100 mM K+, 5 mM Mg2+; 30 nM RNA; 10 mM Tris pH 7.5
[2] = system: dU50 (RNA, aptamer, 2'-deoxyuridine at 37 (U50 in full-length numbering)) GGGGAGAAGGACGGGUCCAGUGCGAAACACGCACUGUUGAGUAGAGUGUGAGCUCCC; assay: fluorescence activation titration, Hill fit; conditions: 100 mM K+, 5 mM Mg2+; 30 nM RNA; 10 mM Tris pH 7.5

- KD [1]: 4.4 ± 0.8 µM
- KD [2]: 1.1 ± 0.3 µM
SMILES: CC1=N/C(=C\c2cc(F)c(O)c(F)c2)C(=O)N1C

From publication PMC4104137 (2014)
